Test results as given in PMC5433426, “Identification of small molecule inhibitors of the Lin28-mediated blockage of pre-let-7g processing” (Organic & Biomolecular Chemistry, 2016).
Where two headings read alike, the source gives them in different places.

Target: T1, Lin28 (Homo sapiens, UniProt Q9H9Z2)
T1 construct: gene LIN28A; recombinant, N-terminal GST tag; multimeric on pre-let-7
T1 sequence (Q9H9Z2 1-209): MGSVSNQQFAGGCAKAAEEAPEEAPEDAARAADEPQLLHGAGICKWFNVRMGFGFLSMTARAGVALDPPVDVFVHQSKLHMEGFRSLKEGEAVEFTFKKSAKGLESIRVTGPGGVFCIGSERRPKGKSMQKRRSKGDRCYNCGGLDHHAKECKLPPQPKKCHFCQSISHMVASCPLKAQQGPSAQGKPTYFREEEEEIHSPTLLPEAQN
Test: fluorescence polarization displacement of fluorescein-labelled tpre-let-7g RNA
Format: binding

IC50 (read-out: IC50) [µM]	Structure (SMILES)	IC50 [µM]
–	NC(Cc1cc(O)c(O)cc1O)C(=O)O (racemic) [compound 10, 6-hydroxy-DL-DOPA]	7.05 ± 0.13
1.18 ± 0.23	O=C(O)C1=CC(=C(c2ccc(O)c(C(=O)O)c2)c2ccc(O)c(C(=O)O)c2)C=CC1=O [compound 4, Aurintricarboxylic acid]	–
4.71 ± 0.16	O=C(O)c1ccc2nc3c4c(O)ccc(O)c4c(=O)c(Cl)c-3oc2c1 [compound 14, SB/ZW/0065]	–

Structure (SMILES)	IC50 (read-out: IC50) [µM]	IC50 [µM]
Nc1c(S(=O)(=O)O)cc(Nc2ccc(S(=O)(=O)O)c(Nc3nc(Cl)nc(Cl)n3)c2)c2c1C(=O)c1ccccc1C2=O [11b, Reactive Blue 4]	10.75 ± 0.1	–
